Patent US6703399B2, “Halo-alkyl esters of camptothecins and methods of treating cancer using these compounds” (priority 2002, dated 2004)

Legend:
[1] = Plasma CPT after oral administration in humans, closed lactone share of AUC; type: in vivo
[2] = Plasma CPT after intrastomach administration in mice, closed lactone share of AUC; type: in vivo
[3] = Pharmacokinetics of CPT in human plasma, lactone half-life; type: in vitro ADME
human tumor xenografts [4] = experiment: Antitumor activity against human tumor xenografts in mice; type: in vivo
Source text: (§1) Clearly, there is a pressing need for a modification which will slow and delay the lactone ring opening upon its entrance into the blood circulation.

tumors = experiment: Clinical responses in Phase I patients; type: in vivo; settings: in humans
Source text: as §1

[5] = Plasma levels of 9NC after i.s. administration, share in closed lactone form; type: in vivo; settings: species not given, mice from b8 and b10
[6] = Plasma levels of 9NC after oral administration to Phase I clinical trial patients, share in closed lactone form; type: in vivo, humans; settings: on average
human tumor xenografts [7] = settings: in mice; cited from earlier work
[8] = water-soluble sodium carboxylate salt; cited from earlier work

## 20(S)-camptothecin [CPT]
[1]
  closed lactone ring form, share of the area under the curve: about 0.4%
[2]
  closed lactone form, share of the area under the curve: approximately 54%
[3]
  half-life time of the drug with lactone intact: 30 min

## CC[C@@]1(O)C(=O)OCc2c1cc1n(c2=O)Cc2cc3c([N+](=O)[O-])cccc3nc2-1 [Example 9NC, 9-nitrocamptothecin]
Human tumor xenografts [4]
  complete tumor regressions: 32/32
tumors
  complete tumor regressions: 2/32
[5]
  share of drug present in the plasma in the closed lactone form: 57%
[6]
  share of drug present in plasma in the closed lactone form: ~3%
Human tumor xenografts [7]
  potency relative to CPT against human tumor xenografts: 2-3 times

## CC[C@@](O)(C(=O)[O-])c1cc2n(c(=O)c1CO)Cc1cc3ccccc3nc1-2.[Na+] [sodium carboxylate salt]
[8]
  anticancer activity in clinical evaluation: devoid of anticancer activity
  toxicity in clinical evaluation: severe toxicity
